Results from ChEMBL document CHEMBL1201862, “PubChem BioAssay data set” (2004).
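Dose response: 5 concentrations. Exposure: 48 h. Format: 96-well plates. Endpoint: linear interpolation; highest concentration if not reached. GI50 = concentration required for 50% inhibition of growth.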 The source made the active and inactive calls. No stated cut-off is given here; in the data, active = GI50 up to about 1.1 µM and inactive = higher.

Columns and labels:
Assay in all cases: NCI-60 cell line screen, 48 h
HL-60 = system: HL-60
HCC 2998 = system: HCC 2998
BT-549 = system: BT-549
UO-31 = system: UO-31
NCI/ADR-RES = system: NCI/ADR-RES
UACC-257 = system: UACC-257
OVCAR-5 = system: OVCAR-5
TK-10 = system: TK-10
SK-MEL-28 = system: SK-MEL-28
Malme-3M = system: Malme-3M
HCT-116 = system: HCT-116
RXF 393 = system: RXF 393
SNB-75 = system: SNB-75
COLO 205 = system: COLO 205
IGROV-1 = system: IGROV-1
MCF7 = system: MCF7
EKVX = system: EKVX
786-0 = system: 786-0
NCI-H226 = system: NCI-H226
NCI-H460 = system: NCI-H460

Compound	GI50 (HL-60)	GI50 (HCC 2998)	GI50 (BT-549)	GI50 (UO-31)	GI50 (NCI/ADR-RES)	GI50 (UACC-257)	GI50 (OVCAR-5)	GI50 (TK-10)	GI50 (SK-MEL-28)	GI50 (Malme-3M)	GI50 (HCT-116)	GI50 (RXF 393)	GI50 (SNB-75)	GI50 (COLO 205)	GI50 (IGROV-1)	GI50 (MCF7)	GI50 (EKVX)	GI50 (786-0)	GI50 (NCI-H226)	GI50 (NCI-H460)
COc1ccc2cc1Oc1ccc(cc1)C(Sc1ccccc1)CCOC(=O)CC2 (configuration not stated)	28.1 µM (inactive)	> 100 µM (inactive)	> 100 µM (inactive)	> 100 µM (inactive)	> 100 µM (inactive)	> 100 µM (inactive)	> 100 µM (inactive)	> 100 µM (inactive)	> 100 µM (inactive)	> 100 µM (inactive)	> 100 µM (inactive)	> 100 µM (inactive)	> 100 µM (inactive)	> 100 µM (inactive)	> 100 µM (inactive)	> 100 µM (inactive)	> 100 µM (inactive)	> 100 µM (inactive)	> 100 µM (inactive)	–
O=C1CC2(CCN(Cc3ccccc3)CC2)C(=O)N1N1CCCCC1	> 100 µM (inactive)	–	> 100 µM (inactive)	> 100 µM (inactive)	> 100 µM (inactive)	> 100 µM (inactive)	> 100 µM (inactive)	> 100 µM (inactive)	> 100 µM (inactive)	> 100 µM (inactive)	> 100 µM (inactive)	> 100 µM (inactive)	> 100 µM (inactive)	> 100 µM (inactive)	> 100 µM (inactive)	> 100 µM (inactive)	–	> 100 µM (inactive)	> 100 µM (inactive)	> 100 µM (inactive)
CCOC(=O)C1(C(C)=O)OC(=O)c2cnccc21 (configuration not stated)	> 100 µM (inactive)	> 100 µM (inactive)	> 100 µM (inactive)	> 100 µM (inactive)	> 100 µM (inactive)	> 100 µM (inactive)	> 100 µM (inactive)	–	> 100 µM (inactive)	> 100 µM (inactive)	> 100 µM (inactive)	> 100 µM (inactive)	> 100 µM (inactive)	> 100 µM (inactive)	> 100 µM (inactive)	> 100 µM (inactive)	> 100 µM (inactive)	> 100 µM (inactive)	> 100 µM (inactive)	> 100 µM (inactive)
COc1cc(OC)cc(-c2nc3cc(F)ccc3s2)c1	–	< 0.01 µM (active)	11 µM (inactive)	31 µM (inactive)	> 100 µM (inactive)	> 100 µM (inactive)	24.9 µM (inactive)	15.8 µM (inactive)	–	55 µM (inactive)	13.6 µM (inactive)	17 µM (inactive)	–	34.1 µM (inactive)	12.3 µM (inactive)	1.83 µM (inactive)	12.1 µM (inactive)	9.08 µM (inactive)	13.7 µM (inactive)	21.8 µM (inactive)
COc1ccc(C(=O)Cn2c(C(=O)/C=C/c3ccco3)nc3ccccc32)cc1	22.1 µM (inactive)	16.6 µM (inactive)	34.4 µM (inactive)	31.6 µM (inactive)	25.9 µM (inactive)	27.4 µM (inactive)	> 100 µM (inactive)	44.8 µM (inactive)	42.2 µM (inactive)	35.2 µM (inactive)	29.3 µM (inactive)	41.3 µM (inactive)	76.6 µM (inactive)	21.7 µM (inactive)	44.1 µM (inactive)	19.4 µM (inactive)	–	31 µM (inactive)	50.9 µM (inactive)	23.5 µM (inactive)
Cc1c(/C=N/NC(=S)Nc2cccc(Cl)c2)c(=O)n(-c2ccccc2)n1C	24 µM (inactive)	55.6 µM (inactive)	21.4 µM (inactive)	15.3 µM (inactive)	4.35 µM (inactive)	32.4 µM (inactive)	–	16.6 µM (inactive)	> 100 µM (inactive)	–	34 µM (inactive)	15.8 µM (inactive)	15 µM (inactive)	96.6 µM (inactive)	18.2 µM (inactive)	24.2 µM (inactive)	6.65 µM (inactive)	18.3 µM (inactive)	13.8 µM (inactive)	9.4 µM (inactive)
CC(=O)N[C@@H](Cc1ccc(O)cn1)C(=O)NCc1cccc(Cl)c1	37.8 µM (inactive)	> 100 µM (inactive)	> 100 µM (inactive)	> 100 µM (inactive)	> 100 µM (inactive)	> 100 µM (inactive)	> 100 µM (inactive)	> 100 µM (inactive)	> 100 µM (inactive)	–	> 100 µM (inactive)	> 100 µM (inactive)	–	> 100 µM (inactive)	> 100 µM (inactive)	> 100 µM (inactive)	> 100 µM (inactive)	> 100 µM (inactive)	> 100 µM (inactive)	> 100 µM (inactive)
SC1=Nc2ccccc2-c2nc(-c3cccc(Cl)c3)cc(-c3ccccc3)c2C1	15 µM (inactive)	3.24 µM (inactive)	5 µM (inactive)	1.93 µM (inactive)	2.04 µM (inactive)	5.9 µM (inactive)	5.77 µM (inactive)	–	9.12 µM (inactive)	4.35 µM (inactive)	1.64 µM (inactive)	2.81 µM (inactive)	1.83 µM (inactive)	7.82 µM (inactive)	0.678 µM (active)	5.04 µM (inactive)	3.54 µM (inactive)	0.971 µM (active)	3.68 µM (inactive)	1.3 µM (inactive)
